Source: PubChem BioAssay AID248 (DTP/NCI, 2004)
Several values for one entry are separate records, joined by “and”; a condition that tells them apart may be missing. Identical values can stand only once. Toxic doses and inconclusive results are not listed. Rule as the data show it: active = T/C of 150% or more; inactive = T/C below 125%.

Test system: L1210 leukemia ip in BDF1 mice, survival T/C
Assay: NCI In Vivo Anticancer Drug Screen. Data for tumor model L1210 Leukemia (intraperitoneal) in B6D2F1 (BDF1) mice
Conditions: endpoint: mean survival time, higher = longer survival
Procedure, shortened: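 Tumor was transplanted into mice, which were then dosed with test compound or vehicle alone. Survival was recorded for each group, and the treated figure was expressed relative to the control figure.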

[1] = dose: 10.0 mg/kg/injection, schedule: Q04DX003 (ip), vehicle: saline
[2] = dose: 20.0 mg/kg/injection, schedule: Q04DX003 (ip), vehicle: saline
[3] = dose: 40.0 mg/kg/injection, schedule: Q04DX003 (ip), vehicle: saline
[4] = dose: 100.0 mg/kg/injection, schedule: Q01DX001 (ip), vehicle: saline
[5] = dose: 200.0 mg/kg/injection, schedule: Q01DX001 (ip), vehicle: saline
[6] = dose: 400.0 mg/kg/injection, schedule: Q01DX001 (ip), vehicle: saline
[7] = dose: 50.0 mg/kg/injection, schedule: Q01DX009 (ip), vehicle: saline with Tween-80
[8] = dose: 100.0 mg/kg/injection, schedule: Q01DX009 (ip), vehicle: saline with Tween-80
[9] = dose: 100.0 mg/kg/injection, schedule: Q04DX003 (ip), vehicle: Klucel (hydroxypropylcellulose) (HPC)
[10] = dose: 200.0 mg/kg/injection, schedule: Q01DX009 (ip), vehicle: saline with Tween-80
[11] = dose: 200.0 mg/kg/injection, schedule: Q04DX003 (ip), vehicle: Klucel (hydroxypropylcellulose) (HPC)
[12] = dose: 400.0 mg/kg/injection, schedule: Q04DX003 (ip), vehicle: Klucel (hydroxypropylcellulose) (HPC)
[13] = dose: 100.0 mg/kg/injection, schedule: Q04DX002 (ip), vehicle: saline with Tween-80
[14] = dose: 200.0 mg/kg/injection, schedule: Q04DX002 (ip), vehicle: saline with Tween-80
[15] = dose: 400.0 mg/kg/injection, schedule: Q04DX002 (ip), vehicle: saline with Tween-80
[16] = dose: 400.0 mg/kg/injection, schedule: Q01DX009 (ip), vehicle: saline with Tween-80
[17] = dose: 6.25 mg/kg/injection, schedule: Q01DX009 (ip), vehicle: saline with Tween-80
[18] = dose: 12.5 mg/kg/injection, schedule: Q01DX009 (ip), vehicle: saline with Tween-80
[19] = dose: 25.0 mg/kg/injection, schedule: Q01DX009 (ip), vehicle: saline with Tween-80
[20] = dose: 100.0 mg/kg/injection, schedule: Q01DX009 (ip), vehicle: Klucel (hydroxypropylcellulose) (HPC)
[21] = dose: 200.0 mg/kg/injection, schedule: Q01DX009 (ip), vehicle: Klucel (hydroxypropylcellulose) (HPC)
[22] = dose: 400.0 mg/kg/injection, schedule: Q01DX009 (ip), vehicle: Klucel (hydroxypropylcellulose) (HPC)
[23] = dose: 100.0 mg/kg/injection, schedule: Q04DX003 (ip), vehicle: saline with Tween-80
[24] = dose: 200.0 mg/kg/injection, schedule: Q04DX003 (ip), vehicle: saline with Tween-80
[25] = dose: 400.0 mg/kg/injection, schedule: Q04DX003 (ip), vehicle: saline with Tween-80
[26] = dose: 100.0 mg/kg/injection, schedule: Q01DX001 (ip), vehicle: Klucel (hydroxypropylcellulose) (HPC)
[27] = dose: 200.0 mg/kg/injection, schedule: Q01DX001 (ip), vehicle: Klucel (hydroxypropylcellulose) (HPC)
[28] = dose: 400.0 mg/kg/injection, schedule: Q01DX001 (ip), vehicle: Klucel (hydroxypropylcellulose) (HPC)

Measured: T/C

CC(C)(C)C#CC#CC(C)(C)C
inactive: [1] 95 % of control | [2] 100 % of control | [3] 92 % of control

COc1ccc(-n2cnnn2)cc1
inactive: [4] 103 % of control | [5] 103 % of control | [6] 103 % of control

O=C(O)C(c1ccccc1)C1CCCC1 (centres undefined)
inactive: [7] 102 % of control | [8] 105 % of control | [9] 98 % of control | [10] 100 % of control | [11] 100 % of control | [12] 98 % of control

Cc1cc(Cl)cc(Cl)c1OCC(=O)Nc1cc(Cl)ccc1Cl
inactive: [13] 90 % of control | [14] 86 % of control | [15] 86 % of control

Nc1nc(N)c(-c2ccc(Cl)cc2)c(CCc2ccc(NC(=O)CBr)cc2)n1
inactive: dose: 50.0 mg/kg/injection, schedule: Q01DX001 (ip), vehicle: saline 116 % of control | [4] 110 % of control

O=S(=O)(Nc1ccc(O)c(Cl)c1)c1ccccc1
inactive: [8] 100 % of control | [10] 103 % of control | [16] 95 % of control

c1ccc(C[n+]2ccc3ccccc3c2)cc1
inactive: [17] 95 % of control | dose: 6.25 mg/kg/injection, schedule: Q04DX003 (ip), vehicle: saline with Tween-80 107 % of control | [1] 105 % of control | [18] 103 % of control | dose: 12.5 mg/kg/injection, schedule: Q01DX009 (ip), vehicle: saline 112 % of control | dose: 12.5 mg/kg/injection, schedule: Q04DX003 (ip), vehicle: saline with Tween-80 98 % of control | [2] 92 % of control | [19] 111 % of control | dose: 25.0 mg/kg/injection, schedule: Q01DX009 (ip), vehicle: saline 107 % of control | dose: 25.0 mg/kg/injection, schedule: Q04DX003 (ip), vehicle: saline with Tween-80 91 % of control | [3] 94 % of control | dose: 50.0 mg/kg/injection, schedule: Q01DX009 (ip), vehicle: saline 104 % of control | dose: 50.0 mg/kg/injection, schedule: Q04DX003 (ip), vehicle: saline 95 % of control

OC(CCl)Cc1ccccc1 (centres undefined)
inactive: [19] 93 % of control | [7] 90 % of control | [8] 92 % of control

CO/C(=C\c1ccc(OC)cc1)C(=O)O
inactive: [20] 93 % of control | [9] 100 % of control | [21] 90 % of control | [11] 101 % of control | [22] 93 % of control | [12] 100 % of control

O=[N+]([O-])c1cccc(C=Nc2cccc(C(F)(F)F)c2)c1
inactive: [20] 109 % of control | [9] 110 % of control | [21] 98 % of control | [11] 110 % of control | [12] 101 % of control

Cc1cccc2c3c([nH]c12)CCSC3
inactive: [23] 108 % of control | [24] 105 % of control | [25] 111 % of control

CSCc1ccc(N)cc1
inactive: [20] 105 % of control | [9] 103 % of control | [21] 112 % of control | [11] 92 % of control | [22] 101 % of control | [12] 98 % of control

CC(C)=CCC/C(C)=C/COC(N)=O
inactive: [13] 100 % of control and 101 % of control | [14] 100 % of control and 99 % of control

O=C(NCc1ccccc1)Nc1ccccc1F
inactive: [20] 110 % of control | [21] 110 % of control | [22] 104 % of control

CCC[CH2][Sn]([c]1ccccc1)([c]1ccccc1)[c]1ccccc1
inactive: dose: 25.6 mg/kg/injection, schedule: Q04DX002 (ip), vehicle: saline with Tween-80 90 % of control | dose: 64.0 mg/kg/injection, schedule: Q04DX002 (ip), vehicle: saline with Tween-80 90 % of control | [23] 88 % of control | dose: 160.0 mg/kg/injection, schedule: Q04DX002 (ip), vehicle: saline with Tween-80 93 % of control | [24] 96 % of control | [15] 97 % of control

CCCCCSB(SCCCCC)c1ccccc1
inactive: [4] 89 % of control | [5] 89 % of control | [6] 92 % of control

C[n+]1cccc2c(C(=O)O)cccc21
inactive: [4] 97 % of control | [5] 96 % of control

CCOC(=O)C1(Br)CCN(S(=O)(=O)c2ccc(C)cc2)c2ccccc2C1=O (centres undefined)
inactive: dose: 100.0 mg/kg/injection, schedule: Q01DX001 (ip), vehicle: carboxymethylcellulose (CMC) 108 % of control | dose: 200.0 mg/kg/injection, schedule: Q01DX001 (ip), vehicle: carboxymethylcellulose (CMC) 103 % of control | dose: 400.0 mg/kg/injection, schedule: Q01DX001 (ip), vehicle: carboxymethylcellulose (CMC) 100 % of control

CCNc1nnc(N=Nc2ccccc2)s1
inactive: [18] 97 % of control | [19] 102 % of control and 92 % of control | [7] 86 % of control | [8] 91 % of control | [14] 98 % of control | [16] 91 % of control | [15] 98 % of control
active: [13] 170 % of control

COC(=O)C1Cc2ccccc2/C1=N\O (centres undefined)
inactive: [7] 94 % of control | [8] 94 % of control | [10] 94 % of control

COC(=O)C(F)C(Br)C(=O)OC (centres undefined)
inactive: dose: 3.12 mg/kg/injection, schedule: Q01DX009 (ip), vehicle: saline with Tween-80 114 % of control | [17] 101 % of control | [18] 103 % of control | [19] 97 % of control | [7] 101 % of control

OCc1cccc2c1CCC2
inactive: dose: 12.5 mg/kg/injection, schedule: Q01DX001 (ip), vehicle: Klucel (hydroxypropylcellulose) (HPC) 100 % of control | dose: 12.5 mg/kg/injection, schedule: Q01DX009 (ip), vehicle: Klucel (hydroxypropylcellulose) (HPC) 104 % of control | dose: 25.0 mg/kg/injection, schedule: Q01DX001 (ip), vehicle: Klucel (hydroxypropylcellulose) (HPC) 100 % of control | dose: 25.0 mg/kg/injection, schedule: Q01DX009 (ip), vehicle: Klucel (hydroxypropylcellulose) (HPC) 96 % of control | dose: 50.0 mg/kg/injection, schedule: Q01DX001 (ip), vehicle: Klucel (hydroxypropylcellulose) (HPC) 102 % of control | dose: 50.0 mg/kg/injection, schedule: Q01DX009 (ip), vehicle: Klucel (hydroxypropylcellulose) (HPC) 94 % of control

CCOC(=O)/C=C(/Nc1ccc(S(=O)(=O)F)cc1)c1ccccc1
inactive: [26] 104 % of control | [27] 100 % of control | [28] 98 % of control

CCSCN1CCN(CSCC)C(C)C1 (centres undefined)
inactive: [4] 104 % of control | [5] 106 % of control | [6] 112 % of control

Cc1ccccc1N=C1C(=O)Nc2ccccc21
inactive: dose: 100.0 mg/kg/injection, schedule: Q01DX001 (ip), vehicle: other 115 % of control | dose: 200.0 mg/kg/injection, schedule: Q01DX001 (ip), vehicle: other 91 % of control | dose: 400.0 mg/kg/injection, schedule: Q01DX001 (ip), vehicle: other 107 % of control

C=CC1CCN(CCn2cnc3c(N)ncnc32)CC1
inactive: [23] 97 % of control | [24] 103 % of control | [25] 97 % of control

O=C(Nc1ccccc1C(=O)N/N=C/c1ccccc1O)c1ccccc1Cl
inactive: [20] 94 % of control | [21] 94 % of control | [22] 94 % of control

COC(=O)C1OC1c1cc(Br)ccc1OC (centres undefined)
inactive: [4] 102 % of control | [5] 103 % of control | [6] 102 % of control

Cc1cc(C)nc(NC(=O)Nc2cccc(C(F)(F)F)c2)c1
inactive: [26] 102 % of control | [20] 104 % of control and 113 % of control | dose: 100.0 mg/kg/injection, schedule: Q04DX002 (ip), vehicle: Klucel (hydroxypropylcellulose) (HPC) 101 % of control and 117 % of control | [9] 94 % of control | [27] 94 % of control | [21] 93 % of control and 109 % of control | dose: 200.0 mg/kg/injection, schedule: Q04DX002 (ip), vehicle: Klucel (hydroxypropylcellulose) (HPC) 96 % of control and 98 % of control | [11] 111 % of control | [28] 98 % of control | [22] 104 % of control and 107 % of control | dose: 400.0 mg/kg/injection, schedule: Q04DX002 (ip), vehicle: Klucel (hydroxypropylcellulose) (HPC) 98 % of control and 99 % of control | [12] 99 % of control

Cc1ccc(S(=O)(=O)OCCOS(=O)(=O)c2ccc(C)cc2)cc1
inactive: [9] 90 % of control | [11] 87 % of control
